Data from patent US20240190842A1, “SUBSTITUTED QUINOLINONE-8-CARBONITRILE DERIVATIVES HAVING ANDROGEN DEGRADATION ACTIVITY AND USES THEREOF” (Accutar Biotechnology Inc., priority 2022, published 2024).

What was measured:
VCAP cells = assay: Inhibition of R1881 stimulated cell growth in VCAP cells (CellTiter-Glo); format: cell-based; details: Homo sapiens, 144 h, 10% CSS, 6 days
Description: (§1) LNCAP and VCAP cells were seeded in 96-well plates at 5000 (LNCAP) and 6000 (VCAP) cells/well in phenol red-free RPM11640 supplemented with 10% charcoal stripped serum (CSS), and then incubated at 37° C. overnight. The following day, the test compound was administered to the cells by using 1000× compound stock solution prepared in DMSO at various concentrations. 1000× compound stock solution was first diluted 1:100 in phenol red-free RPM11640 supplemented with 10% CSS and 1 nM R1881 to prepare the 10× treatment solutions containing serial dilutions of AC176 together in the presence of 1 nM, and then 10 uL compound medium was added to each well in the cell plates. After administration of the compound, the cells were then incubated at 37° C. for 6 days. Upon completion, the plates were equilibrated at room temperature for approximately 10 minutes. 100 ul of CellTiter-Glo® 3D Reagent (Promega) was added to each well. The plates were then incubated at room temperature for 30 minutes and luminescence was recorded by EnSpire plate reader (PerkinElmer). The results are shown in Table 5, which summarizes the growth inhibition (G150) in LNCAP and VCAP cells with exemplary compounds of the present disclosure.

LNCAP cells = assay: Inhibition of R1881 stimulated cell growth in LNCAP cells (CellTiter-Glo); format: cell-based; details: Homo sapiens, 144 h, 10% CSS, 6 days
Description: as §1

Row | Structure (SMILES) | GI50 (VCAP cells) [nM] | GI50 (LNCAP cells) [nM]
1 | CC1(C)C(NC(=O)c2ccc(N3CCC(CN4CCN(c5ccc(C(=O)N[C@H]6CCC(=O)NC6=O)nc5)CC4)CC3)cc2)C(C)(C)C1Oc1ccc(C#N)c2[nH]c(=O)ccc12 (stereo partly drawn) [Compound 43, 5-(4-((1-(4-(((1,3-trans)-3-((8-cyano-2-oxo-1,2-dihydroquinolin-5-yl)oxy)-2,2,4,4-tetramethylcyclobutyl)carbamoyl)phenyl)piperidin-4-yl)methyl)piperazin-1-yl)-N-((S)-2,6-dioxopiperidin-3-yl)picolinamide] | 50 to 500 | > 500
2 | Cn1ccc(=O)c2c(O[C@H]3C(C)(C)[C@H](NC(=O)c4ccc(N5CCC(CN6CCN(c7ccc8c(c7)CN([C@H]7CCC(=O)NC7=O)C8=O)CC6)CC5)cc4)C3(C)C)ccc(C#N)c21 [Compound 39, N-((1,3-trans)-3-((8-cyano-1-methyl-4-oxo-1,4-dihydroquinolin-5-yl)oxy)-2,2,4,4-tetramethylcyclobutyl)-4-(4-((4-(2-((S)-2,6-dioxopiperidin-3-yl)-1-oxoisoindolin-5-yl)piperazin-1-yl)methyl)piperidin-1-yl)benzamide] | ≤ 50 | ≤ 50
3 | CC1(C)C(NC(=O)c2ccc(N3CCC(CN4CCN(c5ccc6c(=O)n(C7CCC(=O)NC7=O)ncc6c5)CC4)CC3)cc2)C(C)(C)C1Oc1ccc(C#N)c2[nH]c(=O)ccc12 (stereo not drawn) [Compound 49, N-((1,3-trans)-3-((8-cyano-2-oxo-1,2-dihydroquinolin-5-yl)oxy)-2,2,4,4-tetramethylcyclobutyl)-4-(4-((4-(2-(2,6-dioxopiperidin-3-yl)-1-oxo-1,2-dihydrophthalazin-6-yl)piperazin-1-yl)methyl)piperidin-1-yl)benzamide] | 50 to 500 | > 500
4 | CC1(C)C(NC(=O)c2ccc(N3CCC(CN4CCN(c5ccc6c(c5)CN([C@H]5CCC(=O)NC5=O)C6=O)CC4)CC3)cc2)C(C)(C)C1Oc1ccc(C#N)c2[nH]ccc(=O)c12 (stereo partly drawn) [Compound 30, N-((1,3-trans)-3-((8-cyano-4-oxo-1,4-dihydroquinolin-5-yl)oxy)-2,2,4,4-tetramethylcyclobutyl)-4-(4-((4-(2-((S)-2,6-dioxopiperidin-3-yl)-1-oxoisoindolin-5-yl)piperazin-1-yl)methyl)piperidin-1-yl)benzamide] | ≤ 50 | ≤ 50
5 | CC1(C)C(NC(=O)c2ccc(N3CCC(CN4CCN(c5ccc6c(c5)C(=O)N(C5CCC(=O)NC5=O)C6=O)CC4)CC3)cc2)C(C)(C)C1Oc1ccc(C#N)c2[nH]c(=O)ccc12 (stereo not drawn) [Compound 20, N-((1,3-trans)-3-((8-cyano-2-oxo-1,2-dihydroquinolin-5-yl)oxy)-2,2,4,4-tetramethylcyclobutyl)-4-(4-((4-(2-(2,6-dioxopiperidin-3-yl)-1,3-dioxoisoindolin-5-yl)piperazin-1-yl)methyl)piperidin-1-yl)benzamide] | 50 to 500 | > 500

Continued, values first:

Row | GI50 (VCAP cells) [nM] | GI50 (LNCAP cells) [nM] | Structure (SMILES)
6 | ≤ 50 | ≤ 50 | CC1(C)C(NC(=O)c2ccc(N3CCC(CN4CCN(c5ccc6c(c5)CN([C@H]5CCC(=O)NC5=O)C6=O)CC4)CC3)cc2)C(C)(C)C1Oc1ccc(C#N)c2[nH]c(=O)ccc12 (stereo partly drawn) [Compound 18, N-((1,3-trans)-3-((8-cyano-2-oxo-1,2-dihydroquinolin-5-yl)oxy)-2,2,4,4-tetramethylcyclobutyl)-4-(4-((4-(2-((S)-2,6-dioxopiperidin-3-yl)-1-oxoisoindolin-5-yl)piperazin-1-yl)methyl)piperidin-1-yl)benzamide]
7 | ≤ 50 | ≤ 50 | Cn1c(=O)ccc2c(OC3C(C)(C)C(NC(=O)c4ccc(N5CCC(CN6CCN(c7ccc8c(c7)CN([C@H]7CCC(=O)NC7=O)C8=O)CC6)CC5)cc4)C3(C)C)ccc(C#N)c21 (stereo partly shown) [Compound 34]
8 | ≤ 50 | ≤ 50 | CC1(C)[C@H](NC(=O)c2ccc(N3CCC(CN4CCN(c5ccc6c(c5)CN([C@H]5CCC(=O)NC5=O)C6=O)CC4)CC3)c(F)c2)C(C)(C)[C@H]1Oc1ccc(C#N)c2[nH]c(=O)ccc12 [Compound 16, N-((1,3-trans)-3-((8-cyano-2-oxo-1,2-dihydroquinolin-5-yl)oxy)-2,2,4,4-tetramethylcyclobutyl)-4-(4-((4-(2-((S)-2,6-dioxopiperidin-3-yl)-1-oxoisoindolin-5-yl)piperazin-1-yl)methyl)piperidin-1-yl)-3-fluorobenzamide]
